Laboratory results taken from patent US9771343B2, “2-alkyl-or-aryl-substituted tanshinone derivatives, and preparation method and application thereof” (Hangzhou Bensheng Pharmaceutical Co., Ltd., priority 2011, dated 2017).
Values after ≈ are worked out from the molar mass of the structure shown.

Tests used:
[1] = tested on: K562/adr (drug-resistant, chronic myeloid leukemia, CML); assay: MTT cell growth inhibition, K562/adr leukemia cells, 72 h; format: cell-based; settings: Homo sapiens, K562/Adr
Method: (§1) The standard sample of tanshinone I (TA) and the 2-alkyl- or 2-aromatic-substituted tanshinone I derivatives of the present invention are sufficiently dissolved in dimethylsulfoxide to produce a stock solution of 10 mg/mL, which is refrigerated at 4° C. and stored in dark, and is diluted with cell culture medium to a desired concentration prior to experimentation.
(§2) Obtaining 6000 well-growing leukemia cells and inoculating them into wells of a 96-well cell culture plate. The culture medium is the RPMI-1640 cell culture medium containing 10% fetal bovine serum. After adding on the second day the 2-alkyl- or 2-aromatic-substituted tanshinone I derivatives of different concentrations and mixing uniformly, placing the plate in a carbon dioxide cell incubator (5% CO2) at 37° C. and incubated for 72 hours. Then the viable cell concentration is determined by MTT method. In this experiment, the cell viability in control group (not treated with any compound) is set as 100%, and the cell viability (%) after treatment by the compounds and the half maximum inhibitory concentration for the leukemia cell at 72 hours (IC50 value of 72 hours, μg/mL) are calculated.

[2] = tested on: Kasumi-1 (acute myeloid leukemia M2 type, AML-M2); assay: MTT cell growth inhibition, Kasumi-1 leukemia cells, 72 h; format: cell-based; settings: Homo sapiens, Kasumi-1, 72 h
Method: as §1, §2

[3] = tested on: NB4 (acute promyelocytic leukemia, AML); assay: MTT cell growth inhibition, NB4 leukemia cells, 72 h; format: cell-based; settings: NB4, 72 h
Method: as §1, §2

[4] = tested on: Jurkat (acute lymphoblastic leukemia, ALL); assay: MTT cell growth inhibition, Jurkat leukemia cells, 72 h; format: cell-based; settings: Homo sapiens, 72 h
Method: as §1, §2

[5] = tested on: H9 (acute lymphoblastic leukemia, ALL); assay: MTT cell growth inhibition, H9 leukemia cells, 72 h; format: cell-based; settings: H9, 72 h
Method: as §1, §2

[6] = tested on: RPMI8226 (multiple myeloma); assay: MTT cell growth inhibition, RPMI8226 multiple myeloma cells, 72 h; format: cell-based, human; settings: Homo sapiens, RPMI 8226, 72 h
Method: as §1, §2

A549 (human lung cancer) = assay: MTT cell growth inhibition, A549 cells, 72 h; format: cell-based; settings: Homo sapiens, A549, 72 h
Method: as §1, with “with a” for “with”, “to the” for “to a”
(§3) Obtaining 6000 well-growing human solid tumor cells and inoculating them into wells of a 96-well cell culture plate. The culture medium is DMEM High Glucose cell culture medium containing 10% fetal bovine serum. The plate is placed in a carbon dioxide cell incubator (5% CO2) at 37° C. and incubated for 24 hours. After adding the 2-alkyl- or 2-aromatic-substituted tanshinone I derivatives of different concentrations and mixing uniformly, the plate is placed in a carbon dioxide cell incubator (5% CO2) at 37° C. and incubated for 72 hours. Then the viable cell concentration is determined by MTT method. In this experiment, the cell viability in control group (not treated with any compound) is set as 100%, and the cell viability (%) after treatment by the compounds and the half maximum inhibitory concentration for the leukemia cell at 72 hours (IC50 value of 72 hours, μg/mL) are calculated.

[7] = tested on: PANC-1 (pancreatic cancer); assay: MTT cell growth inhibition, PANC-1 cells, 72 h; format: cell-based, human; settings: Homo sapiens, PANC-1, 72 h
Method: as §1, with “with a” for “with”, “to the” for “to a”
as §3

[8] = tested on: Becap37 (human breast cancer cell); assay: MTT cell growth inhibition, Becap37 cells, 72 h; format: cell-based; settings: Homo sapiens, Becap-37, 72 h
Method: as §1, with “with a” for “with”, “to the” for “to a”
as §3

MG63 (osteosarcoma) = assay: MTT cell growth inhibition, MG63 cells, 72 h; format: cell-based, human; settings: Homo sapiens, MG-63, 72 h
Method: as §1, with “with a” for “with”, “to the” for “to a”
as §3

[9] = tested on: Hep G2 (human liver cancer cell); assay: MTT cell growth inhibition, Hep G2 cells, 72 h; format: cell-based; settings: Homo sapiens, HepG2, Hep G2, 72 h
Method: as §1, with “with a” for “with”, “to the” for “to a”
as §3

[10] = tested on: RKO (human colon adenocarcinoma cell); assay: MTT cell growth inhibition, RKO cells, 72 h; format: cell-based
Method: as §1, with “with a” for “with”, “to the” for “to a”
as §3

[11] = tested on: U87 MG (malignant glioma cell); assay: MTT cell growth inhibition, U87 MG cells, 72 h; format: cell-based, human; settings: Homo sapiens, U-87 MG, U87-MG, 72 h
Method: as §1, with “with a” for “with”, “to the” for “to a”
as §3

[12] = tested on: Hela (human cervical cancer cell); assay: MTT cell growth inhibition, Hela cells, 72 h; format: cell-based; settings: Homo sapiens, HeLa, 72 h
Method: as §1, with “with a” for “with”, “to the” for “to a”
as §3

[13] = tested on: CaES-17 (esophageal cancer cell); assay: MTT cell growth inhibition, CaES-17 cells, 72 h; format: cell-based, human; settings: Homo sapiens, CaEs17, CaEs-17, 72 h
Method: as §1, with “with a” for “with”, “to the” for “to a”
as §3

[14] = tested on: CNE (nasopharyngeal carcinoma cell); assay: MTT cell growth inhibition, CNE cells, 72 h; format: cell-based, human
Method: as §1, with “with a” for “with”, “to the” for “to a”
as §3

[15] = tested on: Hep-2 (laryngeal carcinoma); assay: MTT cell growth inhibition, Hep-2 cells, 72 h; format: cell-based, human; settings: Homo sapiens, HEp-2, 72 h
Method: as §1, with “with a” for “with”, “to the” for “to a”
as §3

[16] = tested on: MGC 803 (human gastric cancer cell); assay: MTT cell growth inhibition, MGC 803 cells, 72 h; format: cell-based; settings: Homo sapiens, MGC-803, 72 h
Method: as §1, with “with a” for “with”, “to the” for “to a”
as §3

PC-3 (prostate cancer) = assay: MTT cell growth inhibition, PC-3 cells, 72 h; format: cell-based, human
Method: as §1, with “with a” for “with”, “to the” for “to a”
as §3

[17] = tested on: SK-OV-3 (ovarian cancer cell); assay: MTT cell growth inhibition, SK-OV-3 cells, 72 h; format: cell-based, human; settings: Homo sapiens, SK-OV-3, 72 h
Method: as §1, with “with a” for “with”, “to the” for “to a”
as §3

`Cc1oc2c(c1C)C(=O)C(=O)c1c-2ccc2c(C)cccc12` [BS-TA-03] was tested, and the IC50 ([1]; read-out: IC50) was 8.84 µg/mL (≈ 30.4 µM), the IC90 ([1]; read-out: IC90) was 28.7 µg/mL (≈ 98.7 µM) and the IC50 ([2]; read-out: IC50) was 9.66 µg/mL (≈ 33.3 µM). For the same molecule, the IC90 ([2]; read-out: IC90) was 30.3 µg/mL (≈ 104 µM), the IC50 ([3]; read-out: IC50) was 1.13 µg/mL (≈ 3.89 µM) and the IC90 ([3]; read-out: IC90) was 3.64 µg/mL (≈ 12.5 µM). It also gave an IC50 ([4]; read-out: IC50) of 1.88 µg/mL (≈ 6.48 µM), an IC90 ([4]; read-out: IC90) of 6.97 µg/mL (≈ 24 µM) and an IC50 ([5]; read-out: IC50) of 6.4 µg/mL (≈ 22 µM). The IC90 ([5]; read-out: IC90) was over 16 µg/mL, the IC50 ([6]; read-out: IC50) was 2 µg/mL (≈ 6.89 µM) and the IC90 ([6]; read-out: IC90) was 16.5 µg/mL (≈ 56.8 µM). For the same molecule, the IC50 (A549 (human lung cancer); read-out: IC50) was 6.45 µg/mL (≈ 22.2 µM), the IC90 (A549 (human lung cancer); read-out: IC90) was over 16 µg/mL and the IC50 ([7]; read-out: IC50) was 3.46 µg/mL (≈ 11.9 µM). The IC90 ([7]; read-out: IC90) was over 16 µg/mL, the IC50 ([8]; read-out: IC50) was 3.96 µg/mL (≈ 13.6 µM) and the IC90 ([8]; read-out: IC90) was over 16 µg/mL. It also gave an IC50 (MG63 (osteosarcoma); read-out: IC50) of 3.18 µg/mL (≈ 11 µM), an IC90 (MG63 (osteosarcoma); read-out: IC90) of over 16 µg/mL and an IC50 ([9]; read-out: IC50) of 5.48 µg/mL (≈ 18.9 µM). The IC90 ([9]; read-out: IC90) was over 16 µg/mL, the IC50 ([10]; Homo sapiens, RKO, 72 h, read-out: IC50) was 1.35 µg/mL (≈ 4.65 µM) and the IC90 ([10]; Homo sapiens, RKO, 72 h, read-out: IC90) was over 16 µg/mL. The “anti-RKO activity (in words)” value ([10]; Table 2) was “good activity”, the IC50 ([11]; read-out: IC50) was 6.63 µg/mL (≈ 22.8 µM) and the IC90 ([11]; read-out: IC90) was 16.8 µg/mL (≈ 57.7 µM). The IC50 ([12]; read-out: IC50) was 4 µg/mL (≈ 13.8 µM), the IC90 ([12]; read-out: IC90) was over 16 µg/mL and the IC50 ([13]; read-out: IC50) was 5.19 µg/mL (≈ 17.9 µM). It also gave an IC90 ([13]; read-out: IC90) of 20.4 µg/mL (≈ 70.3 µM), an IC50 ([14]; Homo sapiens, CNE, 72 h, read-out: IC50) of 3.9 µg/mL (≈ 13.4 µM) and an IC90 ([14]; Homo sapiens, CNE, 72 h, read-out: IC90) of 97 µg/mL (≈ 334 µM). For the same molecule, the “anti-CNE activity (in words)” value ([14]; Table 2) was “good activity”, the IC50 ([15]; read-out: IC50) was 9.17 µg/mL (≈ 31.6 µM) and the IC90 ([15]; read-out: IC90) was over 16 µg/mL. For the same molecule, the IC50 ([16]; read-out: IC50) was 4.65 µg/mL (≈ 16 µM), the IC90 ([16]; read-out: IC90) was 18.4 µg/mL (≈ 63.4 µM) and the IC50 (PC-3 (prostate cancer); Homo sapiens, PC-3, 72 h, read-out: IC50) was 4.99 µg/mL (≈ 17.2 µM). The IC90 (PC-3 (prostate cancer); Homo sapiens, PC-3, 72 h, read-out: IC90) was 17.5 µg/mL (≈ 60.3 µM), the “anti-PC-3 activity (in words)” value (PC-3 (prostate cancer); Table 2) was “good activity” and the IC50 ([17]; read-out: IC50) was over 16 µg/mL. The IC90 ([17]; read-out: IC90) was over 16 µg/mL.
